The source of these data is BindingDB's records for doi:10.1021/jm0305523 (Merck Research Laboratories, 2004).

This assay concerns the target T1, Caspase-3 (Homo sapiens, UniProt P42574).
T1 sequence (P42574 whole entry): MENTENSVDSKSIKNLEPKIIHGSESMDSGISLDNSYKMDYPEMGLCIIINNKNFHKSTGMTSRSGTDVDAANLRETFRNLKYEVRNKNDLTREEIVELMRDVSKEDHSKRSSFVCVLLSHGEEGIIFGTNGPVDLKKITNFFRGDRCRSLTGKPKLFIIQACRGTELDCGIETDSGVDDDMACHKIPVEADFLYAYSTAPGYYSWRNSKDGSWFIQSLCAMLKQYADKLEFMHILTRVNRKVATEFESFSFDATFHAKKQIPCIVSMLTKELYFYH
Description: Caspase Inhibition Assay. As to conditions: pH 7; 37 °C.

Each structure is given as a SMILES string.

In general, IC50 refers to the concentration that gives 50% inhibition. Higher therefore signals weaker potency in that assay.

Regarding `CC(=O)N[C@@H](CC(=O)O)C(=O)N[C@H]1CCc2cccc3c2N(C1=O)[C@H](C(=O)N[C@@H](CC(=O)O)C(=O)CSCc1ccccc1)C3` [(3S)-5-(benzylsulfanyl)-3-{[(2S,11S)-11-[(3S)-3-acetamido-3-formamidopropanoic acid]-12-oxo-1-azatricyclo[6.4.1.0^{4,13}]trideca-4(13),5,7-trien-2-yl]formamido}-4-oxopentanoic acid], it took 3 nM to reach half-maximal inhibition (IC50).
